Like-named read-outs stand apart in the source and are kept apart here. Values belong to the molecule of their own block, whether it stands above or below them.
Assays:
PI3K γ = PI3K γ (Homo sapiens, UniProt P48736); assay: PI 3-Kinase (human) HTRF assay, PI3K γ
PI3K α = PI3K α (Homo sapiens, UniProt P42336); assay: PI 3-Kinase (human) HTRF assay, PI3K α
PI3K β = PI3K β (Homo sapiens, UniProt P42338); assay: PI 3-Kinase (human) HTRF assay, PI3K β
PI3K δ = PI3K δ (Homo sapiens, UniProt O00329); assay: PI 3-Kinase (human) HTRF assay, PI3K δ
mTOR = target: T1, mTOR (Homo sapiens, UniProt P42345); assay: mTOR kinase inhibition assay (radiometric or LanthaScreen TR-FRET); assay type: biochemical; conditions: read-out: mTORC IC50
T1 construct: purchased Invitrogen

[1] = read-out: PI3K γ IC50, in vitro
[2] = read-out: PI3K α IC50, in vitro
[3] = read-out: PI3K β IC50, in vitro
[4] = read-out: PI3K δ IC50, in vitro

PI3K α, sequence (P42336 whole entry): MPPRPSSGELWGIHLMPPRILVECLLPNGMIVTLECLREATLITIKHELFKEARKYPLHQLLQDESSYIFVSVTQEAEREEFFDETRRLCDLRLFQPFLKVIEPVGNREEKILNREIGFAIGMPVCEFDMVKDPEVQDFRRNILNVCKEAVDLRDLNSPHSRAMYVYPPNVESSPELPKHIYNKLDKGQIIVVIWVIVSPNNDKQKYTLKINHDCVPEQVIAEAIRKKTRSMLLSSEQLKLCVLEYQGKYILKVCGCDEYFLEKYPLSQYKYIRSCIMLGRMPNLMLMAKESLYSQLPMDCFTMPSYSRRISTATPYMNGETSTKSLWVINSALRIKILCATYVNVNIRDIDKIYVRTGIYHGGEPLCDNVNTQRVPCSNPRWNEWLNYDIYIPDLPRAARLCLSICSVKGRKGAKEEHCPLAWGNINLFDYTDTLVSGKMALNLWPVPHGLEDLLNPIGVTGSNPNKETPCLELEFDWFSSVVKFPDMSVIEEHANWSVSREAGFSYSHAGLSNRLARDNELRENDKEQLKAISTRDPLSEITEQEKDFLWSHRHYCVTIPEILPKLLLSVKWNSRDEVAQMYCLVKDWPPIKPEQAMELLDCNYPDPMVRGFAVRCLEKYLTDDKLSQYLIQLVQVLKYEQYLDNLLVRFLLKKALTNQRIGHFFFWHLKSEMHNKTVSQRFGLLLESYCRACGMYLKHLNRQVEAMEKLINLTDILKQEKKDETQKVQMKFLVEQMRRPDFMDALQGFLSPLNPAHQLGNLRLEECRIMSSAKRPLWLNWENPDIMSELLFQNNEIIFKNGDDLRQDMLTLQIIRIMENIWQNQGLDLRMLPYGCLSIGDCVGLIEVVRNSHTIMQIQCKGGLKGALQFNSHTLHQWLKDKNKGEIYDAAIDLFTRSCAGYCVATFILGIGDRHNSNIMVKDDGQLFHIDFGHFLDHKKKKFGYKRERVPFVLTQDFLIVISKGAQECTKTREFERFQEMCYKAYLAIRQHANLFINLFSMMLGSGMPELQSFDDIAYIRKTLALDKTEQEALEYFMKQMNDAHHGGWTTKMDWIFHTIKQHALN
PI3K α, sequence (P27986 whole entry partner): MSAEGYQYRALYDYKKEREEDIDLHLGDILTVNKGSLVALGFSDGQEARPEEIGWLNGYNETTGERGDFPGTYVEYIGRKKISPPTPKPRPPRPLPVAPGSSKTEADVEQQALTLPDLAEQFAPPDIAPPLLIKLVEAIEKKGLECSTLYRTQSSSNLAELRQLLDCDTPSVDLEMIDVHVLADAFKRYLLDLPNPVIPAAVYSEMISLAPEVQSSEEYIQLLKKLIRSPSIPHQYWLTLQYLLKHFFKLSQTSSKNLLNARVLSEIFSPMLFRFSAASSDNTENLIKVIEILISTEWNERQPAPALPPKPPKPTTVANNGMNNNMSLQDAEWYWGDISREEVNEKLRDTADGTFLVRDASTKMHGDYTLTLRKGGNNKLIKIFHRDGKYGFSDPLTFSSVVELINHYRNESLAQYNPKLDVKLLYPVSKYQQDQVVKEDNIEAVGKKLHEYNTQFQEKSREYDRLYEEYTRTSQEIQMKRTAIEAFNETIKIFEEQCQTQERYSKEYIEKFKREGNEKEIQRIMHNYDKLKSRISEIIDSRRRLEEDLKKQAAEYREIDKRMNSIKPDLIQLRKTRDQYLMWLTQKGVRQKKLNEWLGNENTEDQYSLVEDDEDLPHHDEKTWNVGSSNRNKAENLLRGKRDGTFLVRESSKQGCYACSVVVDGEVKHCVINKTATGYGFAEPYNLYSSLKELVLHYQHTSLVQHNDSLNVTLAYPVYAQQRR
PI3K β, sequence (P42338 whole entry): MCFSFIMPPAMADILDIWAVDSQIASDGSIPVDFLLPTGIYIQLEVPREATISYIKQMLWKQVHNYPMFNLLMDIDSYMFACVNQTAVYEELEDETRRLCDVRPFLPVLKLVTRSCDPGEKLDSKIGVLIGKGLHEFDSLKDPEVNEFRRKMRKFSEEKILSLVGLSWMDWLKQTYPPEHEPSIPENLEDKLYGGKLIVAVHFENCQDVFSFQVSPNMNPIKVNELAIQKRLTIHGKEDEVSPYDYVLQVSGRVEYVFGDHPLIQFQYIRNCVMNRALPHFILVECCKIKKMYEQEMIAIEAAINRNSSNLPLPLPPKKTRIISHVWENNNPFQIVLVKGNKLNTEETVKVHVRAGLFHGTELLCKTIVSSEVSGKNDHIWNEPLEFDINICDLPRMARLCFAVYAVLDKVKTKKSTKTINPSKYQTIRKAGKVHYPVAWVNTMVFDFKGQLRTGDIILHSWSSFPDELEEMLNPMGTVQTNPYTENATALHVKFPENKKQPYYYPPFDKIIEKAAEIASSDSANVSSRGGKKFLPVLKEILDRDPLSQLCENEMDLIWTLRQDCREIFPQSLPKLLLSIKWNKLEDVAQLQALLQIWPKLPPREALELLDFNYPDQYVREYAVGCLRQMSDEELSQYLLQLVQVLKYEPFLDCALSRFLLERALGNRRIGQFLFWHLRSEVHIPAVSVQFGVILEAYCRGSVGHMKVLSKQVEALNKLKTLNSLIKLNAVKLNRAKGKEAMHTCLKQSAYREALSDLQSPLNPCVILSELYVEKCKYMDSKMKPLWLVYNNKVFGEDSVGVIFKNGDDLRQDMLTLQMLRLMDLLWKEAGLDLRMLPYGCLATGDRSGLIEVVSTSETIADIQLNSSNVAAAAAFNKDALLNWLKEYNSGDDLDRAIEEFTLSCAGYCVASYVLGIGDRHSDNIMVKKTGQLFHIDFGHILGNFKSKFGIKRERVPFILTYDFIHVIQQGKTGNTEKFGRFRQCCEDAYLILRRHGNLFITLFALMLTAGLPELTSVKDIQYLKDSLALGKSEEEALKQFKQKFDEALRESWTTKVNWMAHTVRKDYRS
PI3K β, sequence (P27986 whole entry partner): as the sequence (P27986 whole entry partner) above
PI3K γ, sequence (P48736 whole entry): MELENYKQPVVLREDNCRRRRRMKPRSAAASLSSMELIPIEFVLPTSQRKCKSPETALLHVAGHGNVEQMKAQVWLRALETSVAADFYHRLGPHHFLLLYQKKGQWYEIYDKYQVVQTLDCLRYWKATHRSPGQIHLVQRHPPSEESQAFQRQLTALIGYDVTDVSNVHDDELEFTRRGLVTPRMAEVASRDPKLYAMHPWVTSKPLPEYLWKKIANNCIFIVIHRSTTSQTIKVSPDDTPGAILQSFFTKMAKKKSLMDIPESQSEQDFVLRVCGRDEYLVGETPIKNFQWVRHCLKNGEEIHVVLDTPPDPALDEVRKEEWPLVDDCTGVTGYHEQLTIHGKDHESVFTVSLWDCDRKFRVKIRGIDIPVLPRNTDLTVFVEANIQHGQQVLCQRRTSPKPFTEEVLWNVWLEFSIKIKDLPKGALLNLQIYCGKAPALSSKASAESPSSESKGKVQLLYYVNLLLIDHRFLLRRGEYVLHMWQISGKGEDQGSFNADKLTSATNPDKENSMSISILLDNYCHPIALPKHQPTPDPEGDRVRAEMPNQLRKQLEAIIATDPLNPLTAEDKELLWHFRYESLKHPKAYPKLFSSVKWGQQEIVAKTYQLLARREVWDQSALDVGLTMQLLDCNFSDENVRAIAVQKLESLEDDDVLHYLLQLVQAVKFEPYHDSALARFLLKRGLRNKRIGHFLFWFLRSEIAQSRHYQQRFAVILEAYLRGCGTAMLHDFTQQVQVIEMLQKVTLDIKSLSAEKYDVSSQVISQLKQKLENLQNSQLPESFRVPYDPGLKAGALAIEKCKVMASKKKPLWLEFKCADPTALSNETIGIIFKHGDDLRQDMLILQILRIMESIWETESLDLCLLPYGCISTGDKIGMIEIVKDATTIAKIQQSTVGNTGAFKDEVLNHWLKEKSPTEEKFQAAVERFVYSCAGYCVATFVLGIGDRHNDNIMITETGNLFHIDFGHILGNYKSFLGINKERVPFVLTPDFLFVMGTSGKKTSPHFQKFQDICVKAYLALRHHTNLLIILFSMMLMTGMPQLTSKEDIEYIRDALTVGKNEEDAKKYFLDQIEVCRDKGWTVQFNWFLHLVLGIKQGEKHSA
PI3K δ, sequence (O00329 whole entry): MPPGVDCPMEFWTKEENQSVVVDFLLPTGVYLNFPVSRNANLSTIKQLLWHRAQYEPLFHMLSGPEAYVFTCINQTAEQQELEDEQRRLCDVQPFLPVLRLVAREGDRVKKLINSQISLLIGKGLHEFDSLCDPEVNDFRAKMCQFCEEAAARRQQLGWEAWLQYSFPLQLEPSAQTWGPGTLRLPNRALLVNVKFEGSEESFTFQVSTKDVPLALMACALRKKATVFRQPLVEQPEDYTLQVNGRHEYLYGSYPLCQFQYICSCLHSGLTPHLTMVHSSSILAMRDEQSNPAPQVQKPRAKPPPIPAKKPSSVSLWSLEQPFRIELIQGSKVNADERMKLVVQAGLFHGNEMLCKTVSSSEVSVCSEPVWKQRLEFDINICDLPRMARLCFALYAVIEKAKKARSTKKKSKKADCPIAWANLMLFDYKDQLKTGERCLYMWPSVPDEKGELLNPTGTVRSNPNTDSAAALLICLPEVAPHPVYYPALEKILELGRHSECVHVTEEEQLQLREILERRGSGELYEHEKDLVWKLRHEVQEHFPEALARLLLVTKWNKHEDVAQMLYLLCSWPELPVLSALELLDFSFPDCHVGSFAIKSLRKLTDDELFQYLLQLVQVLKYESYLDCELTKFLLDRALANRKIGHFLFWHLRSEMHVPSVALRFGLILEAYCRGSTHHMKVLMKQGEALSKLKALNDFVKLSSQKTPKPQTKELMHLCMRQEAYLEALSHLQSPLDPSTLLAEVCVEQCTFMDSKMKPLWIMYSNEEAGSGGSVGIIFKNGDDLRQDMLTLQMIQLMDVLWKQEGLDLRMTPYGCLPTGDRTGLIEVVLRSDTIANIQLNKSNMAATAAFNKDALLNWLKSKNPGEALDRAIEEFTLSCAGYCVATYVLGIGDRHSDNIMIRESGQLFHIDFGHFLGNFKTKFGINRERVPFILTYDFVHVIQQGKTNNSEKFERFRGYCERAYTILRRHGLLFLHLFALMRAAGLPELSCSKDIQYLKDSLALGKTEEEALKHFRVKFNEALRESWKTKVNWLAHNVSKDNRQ
PI3K δ, sequence (P27986 whole entry partner): as the sequence (P27986 whole entry partner) above

- IC50 (PI3K γ; read-out: PI3K γ IC50): < 0.1 µM
- IC50 (PI3K α; read-out: PI3K α IC50): < 0.1 µM
- IC50 (PI3K β; read-out: PI3K β IC50): > 10 µM
- IC50 (PI3K δ; read-out: PI3K δ IC50): < 10 µM
Compound: Cc1ccc(NC(=O)c2cnc3ccc(-c4ccc5oc(N)nc5c4)cn23)cn1 [Compound 294]

- IC50 (PI3K γ): > 10 µM
- IC50 (PI3K α): > 10 µM
- IC50 (PI3K β): > 10 µM
- IC50 (PI3K δ): > 10 µM
Compound: C[C@H]1CN(c2cnc3scc(-c4ccc5oc(N)nc5c4)c3n2)CCN1 [Compound 399]

- IC50 (PI3K γ; [1]): > 10 µM
- IC50 (PI3K α; [2]): > 10 µM
- IC50 (PI3K β; [3]): > 10 µM
- IC50 (PI3K δ; [4]): > 10 µM
Compound: COc1ccc(CNc2n[nH]c3cc(-c4ccc5oc(N)nc5c4)ccc23)cc1 [Compound 429]

- IC50 (PI3K γ; [1]): > 10 µM
- IC50 (PI3K α; [2]): > 10 µM
- IC50 (PI3K β; [3]): > 10 µM
- IC50 (PI3K δ; [4]): > 10 µM
Compound: CNS(=O)(=O)c1cc(-c2ccc3ncc(C(=O)N4CCOCC4)n3c2)ccc1OC [Compound 445]

- IC50 (PI3K γ; [1]): > 10 µM
- IC50 (PI3K α; [2]): > 10 µM
- IC50 (PI3K β; [3]): < 10 µM
- IC50 (PI3K δ; [4]): > 10 µM
Compound: Cc1cc(-c2ccc3nc(N)oc3c2)cn2c(-c3ccncc3)nnc12 [Compound 543]

- IC50 (PI3K γ): < 1 µM
- IC50 (PI3K α): < 1 µM
Compound: Nc1nc2cc(-c3ccc4ncc(C(=O)NCCOCCO)n4c3)ccc2o1 [Compound 550]

- IC50 (PI3K γ; read-out: PI3K γ IC50, Table 4): < 10 µM
- IC50 (PI3K α; read-out: PI3K α IC50, Table 4): < 1 µM
- IC50 (PI3K β; read-out: PI3K β IC50, Table 4): > 10 µM
- IC50 (PI3K δ; read-out: PI3K δ IC50, Table 4): > 10 µM
Compound: CC1CN(C2CN(c3cnc4ccc(-c5ccc6oc(N)nc6c5)nc4n3)C2)CCO1 (centres unmarked) [Compound 569]

- IC50 (PI3K γ; read-out: PI3K γ IC50, Table 4): < 10 µM
- IC50 (PI3K α; read-out: PI3K α IC50, Table 4): < 1 µM
- IC50 (PI3K β; read-out: PI3K β IC50, Table 4): > 10 µM
- IC50 (PI3K δ; read-out: PI3K δ IC50, Table 4): > 10 µM
Compound: Nc1nc2cc(-c3ccc4ncc(N5CC(N6CC7CCC(C6)O7)C5)nc4n3)ccc2o1 [Compound 571]

- IC50 (PI3K γ): < 0.1 µM
- IC50 (PI3K α): < 0.1 µM
- IC50 (PI3K β): < 1 µM
Compound: Nc1nc2cc(-c3ccc4ncc(N5CCNC(=O)C5)nc4n3)ccc2o1 [Compound 580]

- IC50 (PI3K γ; read-out: PI3K γ IC50, Table 4): < 10 µM
- IC50 (PI3K α; read-out: PI3K α IC50, Table 4): < 10 µM
Compound: C[C@@H]1COCCN1C1CN(c2cnc3ccc(-c4ccc5oc(N)nc5c4)nc3n2)C1 [Compound 600]

- IC50 (PI3K γ; read-out: PI3K γ IC50, Table 4): < 0.1 µM
- IC50 (PI3K α; read-out: PI3K α IC50, Table 4): < 0.1 µM
- IC50 (PI3K β; read-out: PI3K β IC50, Table 4): > 10 µM
- IC50 (PI3K δ; read-out: PI3K δ IC50, Table 4): > 10 µM
Compound: Nc1nc2cc(-c3ccc4ncc(N5CC6CCC(C5)O6)cc4n3)ccc2o1 [Compound 610]

- IC50 (PI3K γ; read-out: PI3K γ IC50, Table 4): < 10 µM
- IC50 (PI3K α; read-out: PI3K α IC50, Table 4): < 10 µM
Compound: Nc1nc2cc(-c3cnc4ccc(N5CCOCC5)nc4c3)ccc2o1 [Compound 624]

Continued, molecule first:

Compound: Nc1cc(-c2ccc3ncc(C(=O)N4CCOCC4)n3c2)cnc1Cl [Compound 415]
- IC50 (PI3K γ; [1]): > 10 µM
- IC50 (PI3K α; [2]): < 10 µM
- IC50 (PI3K β; [3]): > 10 µM
- IC50 (PI3K δ; [4]): > 10 µM

Compound: O=C(c1cnc2ccc(-c3ccnc4[nH]ncc34)cn12)N1CCOCC1 [Compound 532]
- IC50 (mTOR; in vitro): > 10 µM
- IC50 (PI3K α; [2]): < 10 µM

Compound: CN1CC2CN(C(=O)c3cnc4ccc(-c5ccc6oc(N)nc6c5)cn34)CC2C1 (centres unmarked) [Compound 533]
- IC50 (mTOR; in vitro): > 10 µM

Compound: Cn1ncc2c(-c3ccc4ncc(C(=O)N5CCOCC5)n4c3)cncc21 [Compound 537]
- IC50 (PI3K γ; [1]): < 10 µM
- IC50 (PI3K α; [2]): < 10 µM

Compound: Cc1ncc(-c2ccc3ncc(C(=O)N4C5CCC4COC5)n3c2)c2cn[nH]c12 [Compound 538]
- IC50 (mTOR; in vitro): > 10 µM
- IC50 (PI3K δ; read-out: PI3K δ IC50): < 10 µM

Compound: O=C(c1cnc2ccc(-c3cncc4c3cnn4CCO)cn12)N1CCOCC1 [Compound 539]
- IC50 (PI3K γ; [1]): > 10 µM
- IC50 (PI3K α; [2]): > 10 µM
- IC50 (PI3K β; [3]): > 10 µM
- IC50 (PI3K δ; [4]): > 10 µM

Compound: Nc1nc2cc(-c3ccc4ncc(N5C6CCC5COC6)cc4n3)ccc2o1 [Compound 574]
- IC50 (PI3K γ; read-out: PI3K γ IC50, Table 4): < 0.1 µM
- IC50 (PI3K α; read-out: PI3K α IC50, Table 4): < 0.1 µM
- IC50 (PI3K β; read-out: PI3K β IC50, Table 4): < 10 µM
- IC50 (PI3K δ; read-out: PI3K δ IC50): > 10 µM

Compound: C[C@@H]1CN(c2cnc3ccc(-c4ccc5oc(N)nc5c4)nc3c2)CCN1 [Compound 599]
- IC50 (PI3K γ; read-out: PI3K γ IC50, Table 4): < 10 µM
- IC50 (mTOR; Table 4): > 10 µM
- IC50 (PI3K δ; read-out: PI3K δ IC50): < 10 µM

Compound: Nc1nc2cc(-c3ccc4ncc(N5CC(N6C7CCC6COC7)C5)nc4n3)ccc2o1 [Compound 602]
- IC50 (PI3K γ; read-out: PI3K γ IC50): > 10 µM
- IC50 (PI3K α; read-out: PI3K α IC50): < 10 µM
- IC50 (PI3K β; read-out: PI3K β IC50, Table 4): > 10 µM
- IC50 (PI3K δ; read-out: PI3K δ IC50): > 10 µM

Compound: C[C@H]1CN(C2CN(c3cnc4ccc(-c5ccc6oc(N)nc6c5)nc4c3)C2)CCN1C [Compound 606]
- IC50 (mTOR; Table 4): > 10 µM
- IC50 (PI3K α): < 0.1 µM
- IC50 (PI3K δ): < 1 µM

Compound: C[C@@H]1CN(C2CN(c3cnc4ccc(-c5ccc6oc(N)nc6c5)nc4c3)C2)CCN1 [Compound 607]
- IC50 (mTOR; Table 4): > 10 µM
- IC50 (PI3K β; read-out: PI3K β IC50, Table 4): < 10 µM

Compound: C[C@@H]1CN(C2CN(c3cnc4ccc(-c5ccc6oc(N)nc6c5)nc4c3)C2)CCN1C [Compound 608]
- IC50 (PI3K γ; read-out: PI3K γ IC50, Table 4): < 10 µM
- IC50 (mTOR; Table 4): > 10 µM
- IC50 (PI3K β; read-out: PI3K β IC50, Table 4): < 10 µM

Compound: Nc1nc2cc(-c3ccc4ncc(N5CC(N6C7CCC6COC7)C5)cc4n3)ccc2o1 [Compound 618]
- IC50 (PI3K γ; read-out: PI3K γ IC50, Table 4): < 1 µM
- IC50 (PI3K α; read-out: PI3K α IC50, Table 4): < 0.1 µM
- IC50 (PI3K β; read-out: PI3K β IC50, Table 4): > 10 µM
- IC50 (PI3K δ; read-out: PI3K δ IC50): < 10 µM

Compound: Nc1nc2cc(-c3cnc4ccc(N5C6CCC5COC6)nc4c3)ccc2o1 [Compound 632]
- IC50 (PI3K γ; read-out: PI3K γ IC50): < 10 µM
- IC50 (PI3K α; read-out: PI3K α IC50): < 10 µM
- IC50 (PI3K β; read-out: PI3K β IC50, Table 4): > 10 µM
- IC50 (PI3K δ; read-out: PI3K δ IC50): > 10 µM

From US9295673B2, “Combination of mTOR inhibitors and P13-kinase inhibitors, and uses thereof” (Intellikine LLC, priority 2011, dated 2016)
